{
  "source": "patent US12077503B2",
  "about": "“Substituted cyclic amides and their use as herbicides” (FMC CORPORATION, priority 2015, dated 2024)",
  "format_in_all_cases": "in vivo",
  "key": {"[1]": {"tested_on": "pigweed (Amaranthus retroflexus)", "assay": "Test A preemergence", "settings": "Amaranthus retroflexus, pre-emergence, 240 h, preemergence, read-out: Pigweed plant response rating"}, "[2]": {"tested_on": "Galium (catchweed bedstraw, Galium aparine)", "assay": "Test A postemergence", "settings": "Galium, post-emergence, 240 h, postemergence, read-out: Galium plant response rating", "procedure,_shortened": "(§1)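 In a loam soil and sand blend, planted seeds got a preemergence directed soil spray, and young plants at the one- to two-leaf stage, 2–10 cm high, got a postemergence application; ~10 d greenhouse hold; injury rated visually, 0 = none, 100 = complete control.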"}, "Kochia (Kochia scoparia)": {"tested_on": "Kochia (Kochia scoparia)", "assay": "Test A postemergence", "settings": "Bassia scoparia, post-emergence, 240 h, postemergence, read-out: Kochia plant response rating", "procedure,_shortened": "as §1"}, "[3]": {"tested_on": "barnyardgrass (Echinochloa crus-galli)", "assay": "Test A postemergence", "settings": "Echinochloa crus-galli, post-emergence, 240 h, postemergence, read-out: Barnyardgrass plant response rating", "procedure,_shortened": "as §1"}, "[4]": {"tested_on": "blackgrass (Alopecurus myosuroides)", "assay": "Test A postemergence", "settings": "Alopecurus myosuroides, post-emergence, 240 h, postemergence, read-out: Blackgrass plant response rating", "procedure,_shortened": "as §1"}, "corn (Zea mays)": {"tested_on": "corn (Zea mays)", "assay": "Test A postemergence", "settings": "Zea mays, post-emergence, 240 h, postemergence, read-out: Corn plant response rating", "procedure,_shortened": "as §1"}, "[5]": {"tested_on": "giant foxtail (Setaria faberii)", "assay": "Test A postemergence", "settings": "Setaria faberi, post-emergence, 240 h, postemergence, read-out: Foxtail, Giant plant response rating", "procedure,_shortened": "as §1"}, "[6]": {"tested_on": "pigweed (Amaranthus retroflexus)", "assay": "Test A postemergence", "settings": "Amaranthus retroflexus, post-emergence, 240 h, postemergence, read-out: Pigweed plant response rating", "procedure,_shortened": "as §1"}, "[7]": {"tested_on": "ragweed (common ragweed, Ambrosia elatior)", "assay": "Test A postemergence", "settings": "Ambrosia artemisiifolia, post-emergence, 240 h, postemergence, read-out: Ragweed plant response rating", "procedure,_shortened": "as §1"}, "[8]": {"tested_on": "ryegrass, Italian (Italian ryegrass, Lolium multiflorum)", "assay": "Test A postemergence", "settings": "Lolium multiflorum, post-emergence, 240 h, postemergence, read-out: Ryegrass, Italian plant response rating", "procedure,_shortened": "as §1"}, "[9]": {"tested_on": "wheat (Triticum aestivum)", "assay": "Test A postemergence", "settings": "Triticum aestivum, post-emergence, 240 h, postemergence, read-out: Wheat plant response rating", "procedure,_shortened": "as §1"}, "[10]": {"tested_on": "barnyardgrass (Echinochloa crus-galli)", "assay": "Test B flooded paddy test", "settings": "Echinochloa crus-galli, 250 g ai/ha, Flood; 0 to 100 scale where 0 is no effect and 100 is complete control; read-out: Barnyardgrass plant response rating", "procedure,_shortened": "(§2)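 2-leaf plants; pots flooded 3 cm over soil; cpd added to paddy water; depth held; greenhouse 13–15 d; visual rating vs controls, 0 = no effect, 100 = complete control.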"}, "[11]": {"tested_on": "ducksalad (Heteranthera limosa)", "assay": "Test B flooded paddy test", "settings": "Heteranthera limosa, 250 g ai/ha, Flood; 0 to 100 scale where 0 is no effect and 100 is complete control; read-out: Ducksalad plant response rating", "procedure,_shortened": "as §2"}, "rice (Oryra sativa)": {"tested_on": "rice (Oryra sativa)", "assay": "Test B flooded paddy test", "settings": "Oryza sativa, 250 g ai/ha, Flood; 0 to 100 scale where 0 is no effect and 100 is complete control; read-out: Rice plant response rating", "procedure,_shortened": "as §2"}, "[12]": {"tested_on": "sedge, umbrella (small-flower umbrella sedge, Cyperus difformis)", "assay": "Test B flooded paddy test", "settings": "Cyperus difformis, 250 g ai/ha, Flood; 0 to 100 scale where 0 is no effect and 100 is complete control; read-out: Sedge, Umbrella plant response rating", "procedure,_shortened": "as §2"}, "[13]": {"settings": "125 g ai/ha, visual injury on 0 to 100 scale (0 no effect, 100 complete control), approx. 10 d"}, "[14]": {"settings": "500 g ai/ha, 0 to 100 scale, 0 is no effect, 100 is complete control"}},
  "data": [
    {"smiles": "CN1CC(c2ccccc2OC(F)(F)C(F)F)C(C(=O)Nc2cccc(F)c2F)C1=O", "note": "(centres unmarked) [Compound 1056]", "values": [
      {"measurement": "pest or weed control at 125 g/ha", "setting": "[1]; 125 g ai/ha, 0 to 100 scale where 0 is no effect and 100 is complete control, approx. 10 d", "value": 0, "unit": "%"},
      {"measurement": "pest or weed control at 500 g/ha", "setting": "[1]; 500 g ai/ha, visual injury rating about 10 d after treatment, 0 to 100 scale (0 no effect, 100 complete control)", "value": 0, "unit": "%"},
      {"measurement": "pest or weed control at 125 g/ha", "setting": "[2]; [13]", "value": 0, "unit": "%"},
      {"measurement": "pest or weed control at 500 g/ha", "setting": "[2]; [14]", "value": 0, "unit": "%"},
      {"measurement": "pest or weed control at 125 g/ha", "setting": "Kochia (Kochia scoparia); [13]", "value": 0, "unit": "%"},
      {"measurement": "pest or weed control at 500 g/ha", "setting": "Kochia (Kochia scoparia); [14]", "value": 0, "unit": "%"},
      {"measurement": "pest or weed control at 125 g/ha", "setting": "[3]; [13]", "value": 20, "unit": "%"},
      {"measurement": "pest or weed control at 500 g/ha", "setting": "[3]; [14]", "value": 50, "unit": "%"},
      {"measurement": "pest or weed control at 125 g/ha", "setting": "[4]; [13]", "value": 0, "unit": "%"},
      {"measurement": "pest or weed control at 500 g/ha", "setting": "[4]; [14]", "value": 0, "unit": "%"},
      {"measurement": "plant injury at 125 g/ha", "setting": "corn (Zea mays); [13]", "value": 0, "unit": "%"},
      {"measurement": "plant injury at 500 g/ha", "setting": "corn (Zea mays); [14]", "value": 0, "unit": "%"},
      {"measurement": "pest or weed control at 125 g/ha", "setting": "[5]; [13]", "value": 0, "unit": "%"},
      {"measurement": "pest or weed control at 500 g/ha", "setting": "[5]; [14]", "value": 20, "unit": "%"},
      {"measurement": "pest or weed control at 125 g/ha", "setting": "[6]; [13]", "value": 0, "unit": "%"},
      {"measurement": "pest or weed control at 500 g/ha", "setting": "[6]; [14]", "value": 0, "unit": "%"},
      {"measurement": "pest or weed control at 125 g/ha", "setting": "[7]; [13]", "value": 0, "unit": "%"},
      {"measurement": "pest or weed control at 500 g/ha", "setting": "[7]; [14]", "value": 0, "unit": "%"},
      {"measurement": "pest or weed control at 125 g/ha", "setting": "[8]; [13]", "value": 0, "unit": "%"},
      {"measurement": "pest or weed control at 500 g/ha", "setting": "[8]; [14]", "value": 0, "unit": "%"},
      {"measurement": "plant injury at 125 g/ha", "setting": "[9]; [13]", "value": 0, "unit": "%"},
      {"measurement": "plant injury at 500 g/ha", "setting": "[9]; [14]", "value": 0, "unit": "%"},
      {"measurement": "pest or weed control at 250 g/ha", "setting": "[10]", "value": 0, "unit": "%"},
      {"measurement": "pest or weed control at 250 g/ha", "setting": "[11]", "value": 0, "unit": "%"},
      {"measurement": "pest or weed control at 250 g/ha", "setting": "rice (Oryra sativa)", "value": 20, "unit": "%"},
      {"measurement": "pest or weed control at 250 g/ha", "setting": "[12]", "value": 0, "unit": "%"}
    ]}
  ]
}
